Tests used:
[1] = tested on: totality of B. longum + B. bifidum + B. animalis lactis + B. angulatum; experiment: Faecal microbiota / Bifidobacterium profiling after 2 weeks' daily HMO consumption by healthy adults; assay type: in vivo, human; settings: oral
Method: (§1) A total of 100 male and female healthy adults are recruited to participate in the study. After a screening visit and run-in period of 1-2 weeks, the participants are selected and randomized into ten groups, each of 10 subjects. One group is administered a placebo product containing 2 grams of glucose. The remaining 9 groups are administered treatment product containing a) 20 g of 2′-FL, b) 10 g of 2′-FL, c) 5 g of 2′-FL, d) 20 g of LNnT, e) 10 g of LNnT, f) 5 g of LNnT, g) 20 g of a 2:1 mixture of 2′-FL and LNnT, h) 10 g of a 2:1 mixture of 2′-FL and LNnT, and i) 5 g of a 2:1 mixture of 2′-FL and LNnT for 2 weeks (the amounts correspond to a daily dose). The placebo and treatment products are in powder form in a unit dosage container.
(§2) At the second visit, eligibility criteria are checked and eligible subjects are randomised to the ten arms in the trial (treatment groups and placebo group). The faecal samples are collected and equipment for new samples are distributed. Participants are familiarised with an interactive internet enabled system which recorded data daily and are provided with either treatment or control products. Subjects are reminded not to change their usual diet during the study. Blood samples are collected for biomarker studies. The faecal samples are stored at −80° C. until analysis.
(§3) The study runs for 2 weeks with the participants consuming either a placebo or a treatment product daily. Participants are instructed to consume the products in the morning with breakfast. Compliance is monitored through the interactive internet enabled system.
(§4) At the end of the study, each participant has an exit visit with the medical team. Faecal samples and blood samples are collected.
(§5) To assess the microbiota profile, DNA is extracted from the faecal samples using a 96-well PowerSoil DNA Isolation Kit (MO-BIO). A minimum of one sample-well per plate is kept empty to serve as a negative control during PCR. PCR is done with the forward primer S-D-Bact-0341-b-S-17 and reverse primer S-D-Bact-0785-a-A-21 (Klindworth et al. Nucleic Acids Res. 41, e1 (2013)) with Illumina adapters attached. These are universal bacterial 16S rDNA primers, which targeted the V3-V4 region. The following PCR program is used: 98° C. for 30 sec, 25× (98° C. for 10 s, 55° C. for 20 s, 72° C. for 20 s), 72° C. for 5 min. Amplification is verified by running the products on a 1% agarose gel. Barcodes are added in a nested PCR using the Nextera Index Kit V2 (Illumina) with the following PCR program: 98° C. for 30 sec, 8× (98° C. for 10 s, 55° C. for 20 s, 72° C. for 20 s), 72° C. for 5 min. Attachment of primers is verified by running the products on a 1% agarose gel. Products from the nested PCR are normalized using the SequalPrep Normalization Plate Kit and pooled. Pooled libraries are concentrated by evaporation and the DNA concentration of pooled libraries is measured on a Qubit fluorometer using the Qubit High Sensitivity Assay Kit (Thermo Fisher Scientific). Sequencing is done on a MiSeq desktop sequencer using the MiSeq Reagent Kit V3 (Illumina) for 2×300 bp paired-end sequencing. The 64-bit version of USEARCH is used for bioinformatical analysis of the sequence data.
(§6) To assess the Bifidobacterium community, ITS profiling of DNA samples is performed according to Milani et al. FEMS Microbiol. Ecol. 90, 493 (2014). […] Both B. adolescentis and B. pseudocatenulatum are members of the B. adolescentis phylogenetic group. It can be seen that oral ingestion of the HMOs clearly increases the abundance of B. adolescentis and/or B. pseudocatenulatum in the microbiota of healthy adults, as well as their relative abundance compared to the totality of other Bifidobacterium species.

[2] = tested on: B. adolescentis phylogenetic group; experiment: as above; assay type: in vivo, human; settings: oral
Method: as §1, §2, §3, §4, §5, §6

| Compound | percentage increase of totality of B. longum + B. bifidum + B. animalis lactis + B. angulatum in human faeces ([1]; 5 g daily dose) [%] | percentage increase of totality of B. longum + B. bifidum + B. animalis lactis + B. angulatum in human faeces ([1]; 10 g daily dose) [%] | percentage increase of totality of B. longum + B. bifidum + B. animalis lactis + B. angulatum in human faeces ([1]; 20 g daily dose) [%] | percentage increase of B. adolescentis phylogenetic group in human faeces ([2]; 5 g daily dose) [%] | percentage increase of B. adolescentis phylogenetic group in human faeces ([2]; 10 g daily dose) [%] | percentage increase of B. adolescentis phylogenetic group in human faeces ([2]; 20 g daily dose) [%] |
| --- | --- | --- | --- | --- | --- | --- |
| CC(=O)N[C@H]1[C@H](O[C@H]2[C@@H](O)[C@@H](CO)O[C@@H](O[C@H]3[C@H](O)[C@@H](O)C(O)O[C@@H]3CO)[C@@H]2O)O[C@H](CO)[C@@H](O[C@@H]2O[C@H](CO)[C@H](O)[C@H](O)[C@H]2O)[C@@H]1O (mixture of isomers) [LNnT, lacto-N-neotetraose] | 50 | 130 | 105 | 90 | 195 | 185 |
| 2′-fucosyllactose [2′-FL] | 0 | 20 | 15 | 50 | 325 | 120 |
